The values below come from US11634395B2, “Sulfonamide compound or salt thereof” (Taiho Pharmaceutical Co., Ltd., priority 2016, dated 2023).

Usually IC50 stands for the point on the concentration scale where inhibition reaches its midpoint.

Sequence of Human RNR (human M1 subunit and human M2 subunit) (P23921 whole entry): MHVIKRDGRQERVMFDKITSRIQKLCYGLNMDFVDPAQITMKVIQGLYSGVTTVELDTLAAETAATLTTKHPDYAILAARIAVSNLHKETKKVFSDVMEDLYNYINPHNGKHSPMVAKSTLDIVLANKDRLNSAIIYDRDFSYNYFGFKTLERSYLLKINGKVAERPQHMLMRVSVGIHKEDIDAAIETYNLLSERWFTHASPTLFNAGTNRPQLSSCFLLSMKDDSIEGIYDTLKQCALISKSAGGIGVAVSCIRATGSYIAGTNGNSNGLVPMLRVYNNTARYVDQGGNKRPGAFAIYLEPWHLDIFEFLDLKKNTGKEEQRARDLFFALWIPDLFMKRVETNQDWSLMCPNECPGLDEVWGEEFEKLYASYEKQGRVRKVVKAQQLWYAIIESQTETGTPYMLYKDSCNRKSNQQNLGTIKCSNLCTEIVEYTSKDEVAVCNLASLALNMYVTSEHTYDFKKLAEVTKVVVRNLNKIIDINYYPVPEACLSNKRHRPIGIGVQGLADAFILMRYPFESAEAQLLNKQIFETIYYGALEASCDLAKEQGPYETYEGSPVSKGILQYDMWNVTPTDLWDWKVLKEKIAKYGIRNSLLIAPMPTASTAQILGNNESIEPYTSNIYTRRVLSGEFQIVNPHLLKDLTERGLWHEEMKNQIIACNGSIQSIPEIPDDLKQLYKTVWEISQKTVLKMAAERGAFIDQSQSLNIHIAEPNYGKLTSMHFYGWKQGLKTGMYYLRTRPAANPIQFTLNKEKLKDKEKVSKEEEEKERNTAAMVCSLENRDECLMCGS

The first experiment concerns the target Human RNR (human M1 subunit and human M2 subunit) (Homo sapiens (Human), UniProt P23921). The experiment in a line: Human RNR inhibition effect (formation of dCDP from CDP, HPLC). The experiment is classed as biochemical. Particulars: human M1 and M2 proteins, 10 μM CDP, 37° C. for 30 minutes; read-out: RNR Enzyme inhibitory activity IC50. Here is the method:
The inhibitory activity against the ribonucleotide reduction reaction (hereinafter referred to as RNR reaction) of the test compound was determined by measuring the formation of deoxycytidine diphosphate (hereinafter referred to as dCDP) from cytidine diphosphate (hereinafter referred to as CDP) by the following method.
Human M1 subunit and human M2 subunit (mutant lacking amino terminal 59 amino acids), which are fused a histidine tag at the amino terminus, are overexpressed in Escherichia coli and are solubilized after collection, and histidine tagged human M1 and M2 proteins were purified on a nickel chelate column.
First, test compounds were serially diluted with DMSO. Next, human M1 protein and human M2 protein were added to an aqueous albumin solution derived from 0.02% fetal bovine serum, a DMSO solution of the compound of the present invention or the control DMSO solution (final concentration of DMSO was 1%) was added, and the mixture was allowed to stand for 20 minutes. Thereafter, the reaction buffer [50 mM HEPES buffer (pH 7.2) at the final concentration, 4 mM magnesium acetate at the final concentration, 100 mM potassium chloride at the final concentration, 6 mM dithiothreitol at the final concentration, 2 mM adenosine triphosphate at the final concentration, 0.24 mM nicotinamide adenine dinucleotide phosphate at final concentration] and 10 μM CDP at the final concentration were added and incubated at 37° C. for 30 minutes to perform RNR reaction. Immediately after the reaction, the reaction was stopped by heating at 100° C. for 15 minutes, followed by centrifugation at 10,000 rpm for 10 minutes. After the centrifugation, a portion (5 μL) of the resulting supernatant was analyzed with a high performance liquid chromatography (Shimadzu Corporation, Prominence) using Shim-pack XR-ODS (manufactured by Shimadzu GLC Co., 3.0×100 mm).
On to `[2H]C([2H])([2H])C1(O)CCOc2c(S(=O)(=O)N[C@H](c3n[nH]c(=O)o3)[C@H](C)c3c(F)ccc(C)c3C)ccc(Cl)c21` (single isomer, unassigned) [Example 200A], for which the IC50 stood at 30 nM. The same measure, in the same setting: for `[2H]C([2H])([2H])C1(O)CCOc2c(S(=O)(=O)N[C@H](c3n[nH]c(=O)o3)[C@H](C)c3c(F)ccc(C)c3C)ccc(Cl)c21` (single isomer, unassigned) [Example 200B] the value was 80 nM; for `Cc1ccc(F)c([C@@H](C)[C@H](NS(=O)(=O)c2ccc(Cl)c3c2OCCC3(C)O)c2n[nH]c(=O)o2)c1C` (single isomer, unassigned) [Example 207A], 130 nM; for `Cc1ccc(F)c([C@@H](C)[C@H](NS(=O)(=O)c2ccc(Cl)c3c2OCCC3(C)O)c2n[nH]c(=O)o2)c1C` (single isomer, unassigned) [Example 207B], 90 nM. On the same count and under the same terms, for `COc1c(S(=O)(=O)N[C@H](c2n[nH]c(=O)o2)[C@H](C)c2c(F)ccc(C)c2C)ccc(Cl)c1C(C)O` (single isomer, unassigned) [Example 208A] the value was 100 nM; for `COc1c(S(=O)(=O)N[C@H](c2n[nH]c(=O)o2)[C@H](C)c2c(F)ccc(C)c2C)ccc(Cl)c1C(C)O` (single isomer, unassigned) [Example 208B], 60 nM; for `Cc1c(Cl)ccc(F)c1[C@@H](C)[C@H](NS(=O)(=O)c1ccc(Cl)c2c1OCCC2(C)O)c1n[nH]c(=O)o1` (single isomer, unassigned) [Example 209A], 100 nM. Turning to `Cc1c(Cl)ccc(F)c1[C@@H](C)[C@H](NS(=O)(=O)c1ccc(Cl)c2c1OCCC2(C)O)c1n[nH]c(=O)o1` (single isomer, unassigned) [Example 209B], the IC50 was 180 nM.

For the molecule `Cc1ccc(F)c([C@@H](C)[C@H](NS(=O)(=O)c2ccc(Cl)c3c2OCCC3(O)C(F)(F)F)c2n[nH]c(=O)o2)c1C` (single isomer, unassigned) [Example 220A], the IC50 stood at 60 nM. As to `Cc1ccc(F)c([C@@H](C)[C@H](NS(=O)(=O)c2ccc(Cl)c3c2OCCC3(O)C(F)(F)F)c2n[nH]c(=O)o2)c1C` (single isomer, unassigned) [Example 220B], the IC50 stood at 80 nM. On the same count and under the same terms, for `Cc1c(Br)ccc(F)c1[C@@H](C)[C@H](NS(=O)(=O)c1ccc(Cl)c2c1OCCC2(C)O)c1n[nH]c(=O)o1` (single isomer, unassigned) [Example 222A] the value was 80 nM. On the same count and under the same terms, for `Cc1c(Br)ccc(F)c1[C@@H](C)[C@H](NS(=O)(=O)c1ccc(Cl)c2c1OCCC2(C)O)c1n[nH]c(=O)o1` (single isomer, unassigned) [Example 222B] the value was 60 nM.

Turning to `Cc1ccc(F)c([C@@H](C)[C@H](NS(=O)(=O)c2ccc(F)c3c2OCCC3(C)O)c2n[nH]c(=O)o2)c1C` (single isomer, unassigned) [Example 224B], the IC50 came out at 100 nM. In the case of `[2H]C([2H])([2H])C1(O)CCOc2c(S(=O)(=O)N[C@H](c3n[nH]c(=O)o3)[C@H](C)c3c(F)ccc(Br)c3C)ccc(Cl)c21` (single isomer, unassigned) [Example 226A], the IC50 was 50 nM. With `[2H]C([2H])([2H])C1(O)CCOc2c(S(=O)(=O)N[C@H](c3n[nH]c(=O)o3)[C@H](C)c3c(F)ccc(Br)c3C)ccc(Cl)c21` (single isomer, unassigned) [Example 226B], the IC50 was found to be 70 nM. The same measure, in the same setting: the result for `Cc1c(Br)ccc(F)c1[C@@H](C)[C@H](NS(=O)(=O)c1ccc(F)c2c1OCCC2(C)O)c1n[nH]c(=O)o1` (single isomer, unassigned) [Example 227A] reads 50 nM; that for `Cc1c(Br)ccc(F)c1[C@@H](C)[C@H](NS(=O)(=O)c1ccc(F)c2c1OCCC2(C)O)c1n[nH]c(=O)o1` (single isomer, unassigned) [Example 227B], 90 nM. Same read-out and setting: for `[2H]C([2H])([2H])C1(O)CCOc2c(S(=O)(=O)N[C@H](c3n[nH]c(=O)o3)[C@H](C)c3c(F)ccc(Cl)c3C)ccc(Cl)c21` (single isomer, unassigned) [Example 228A] the value was 80 nM. On the same count and under the same terms, for `[2H]C([2H])([2H])C1(O)CCOc2c(S(=O)(=O)N[C@H](c3n[nH]c(=O)o3)[C@H](C)c3c(F)ccc(Cl)c3C)ccc(Cl)c21` (single isomer, unassigned) [Example 228B] the value was 140 nM; for `Cc1c(Cl)ccc(F)c1[C@@H](C)[C@H](NS(=O)(=O)c1ccc(F)c2c1OCCC2(C)O)c1n[nH]c(=O)o1` (single isomer, unassigned) [Example 229A], 60 nM.

Turning to `Cc1c(Cl)ccc(F)c1[C@@H](C)[C@H](NS(=O)(=O)c1ccc(F)c2c1OCCC2(C)O)c1n[nH]c(=O)o1` (single isomer, unassigned) [Example 229B], the concentration for half-maximal inhibition (IC50) came out at 110 nM.

With `Cc1ccc(F)c([C@@H](C)[C@H](NS(=O)(=O)c2ccc(F)c3c2OCCC3O)c2n[nH]c(=O)o2)c1C` (single isomer, unassigned) [Example 230A], the IC50 came to 120 nM. `Cc1ccc(F)c([C@@H](C)[C@H](NS(=O)(=O)c2ccc(F)c3c2OCCC3O)c2n[nH]c(=O)o2)c1C` (single isomer, unassigned) [Example 230B]: the IC50 is 50 nM. Same read-out and setting: for `C[C@H](c1c(F)ccc2ccccc12)[C@H](NS(=O)(=O)c1ccc(Cl)c2c1OCCC2O)c1n[nH]c(=O)o1` (single isomer, unassigned) [Example 234A] the value was 310 nM; for `Cc1ccc(F)c([C@@H](C)[C@H](NS(=O)(=O)c2ccc(Cl)c3c2OCCC3O)c2n[nH]c(=O)o2)c1C` (single isomer, unassigned) [Example 235A], 80 nM; for `Cc1ccc(F)c([C@@H](C)[C@H](NS(=O)(=O)c2ccc(Cl)c3c2OCCC3O)c2n[nH]c(=O)o2)c1C` (single isomer, unassigned) [Example 235B], 70 nM. For the molecule `Cc1ccc(F)c([C@@H](C)[C@H](NS(=O)(=O)c2cccc3c2OC(C)(C)CC3O)c2n[nH]c(=O)o2)c1C` (single isomer, unassigned) [Example 237A], the IC50 came to 290 nM. The same measure, in the same setting: for `CCc1ccc(F)c([C@@H](C)[C@H](NS(=O)(=O)c2ccc(Cl)c3c2OCCC3O)c2n[nH]c(=O)o2)c1C` (single isomer, unassigned) [Example 239A] the value was 200 nM.

On to `Cc1c(Br)ccc(F)c1[C@@H](C)[C@H](NS(=O)(=O)c1ccc(Cl)c2c1OCCC2O)c1n[nH]c(=O)o1` (single isomer, unassigned) [Example 243A], for which the IC50 is 70 nM. On the same count and under the same terms, the result for `Cc1c(Br)ccc(F)c1[C@@H](C)[C@H](NS(=O)(=O)c1ccc(Cl)c2c1OCCC2O)c1n[nH]c(=O)o1` (single isomer, unassigned) [Example 243B] reads 100 nM; that for `Cc1ccc(F)c([C@@H](C)[C@H](NS(=O)(=O)c2ccc(C(F)(F)F)c3c2OCCC3O)c2n[nH]c(=O)o2)c1C` (single isomer, unassigned) [Example 244A], 90 nM; that for `Cc1ccc(F)c([C@@H](C)[C@H](NS(=O)(=O)c2ccc(C(F)(F)F)c3c2OCCC3O)c2n[nH]c(=O)o2)c1C` (single isomer, unassigned) [Example 244B], 220 nM. Still for that read-out and setting: the result for `Cc1c(Cl)ccc(F)c1[C@@H](C)[C@H](NS(=O)(=O)c1ccc(Cl)c2c1OCCC2(C)N)c1n[nH]c(=O)o1` (single isomer, unassigned) [Example 330A] reads 120 nM; that for `Cc1c(Cl)ccc(F)c1[C@@H](C)[C@H](NS(=O)(=O)c1ccc(Cl)c2c1OCCC2(C)N)c1n[nH]c(=O)o1` (single isomer, unassigned) [Example 330B], 460 nM; that for `Cc1c(Cl)ccc(F)c1[C@@H](C)[C@H](NS(=O)(=O)c1ccc(Cl)c2c1OCCC2O)c1n[nH]c(=O)o1` (stereo partly drawn) [Example 238A, 5-chloro-N-((1S,2R)-2-(3-chloro-6-fluoro-2-methylphenyl)-1-(5-oxo-4,5-dihydro-1,3,4-oxadiazol-2-yl)propyl)-4-hydroxychroman-8-sulfonamide], 110 nM.

The same experiment, now with this note: human M1 and M2 subunits; formation of dCDP from CDP, 10 μM CDP, 37° C. for 30 minutes; read-out: RNR Enzyme inhibitory activity IC50.
For `C=C(c1c(F)ccc(C)c1C)[C@H](NS(=O)(=O)c1ccc(Cl)cc1OC)c1n[nH]c(=O)o1` [Example 185, (S)-4-chloro-N-(2-(6-fluoro-2,3-dimethylphenyl)-1-(5-oxo-4,5-dihydro-1,3,4-oxadiazol-2-yl)allyl)-2-methoxybenzenesulfonamide], the IC50 came to 600 nM.
